Consider four molecules from US20040102387A1 (priority 2002, published 2004).

This experiment concerns the target Botulinum neurotoxin type A (Clostridium botulinum, UniProt P0DPI0). It counts as cell-based.

Chain of Botulinum neurotoxin type A (P0DPI0 whole entry, looked up): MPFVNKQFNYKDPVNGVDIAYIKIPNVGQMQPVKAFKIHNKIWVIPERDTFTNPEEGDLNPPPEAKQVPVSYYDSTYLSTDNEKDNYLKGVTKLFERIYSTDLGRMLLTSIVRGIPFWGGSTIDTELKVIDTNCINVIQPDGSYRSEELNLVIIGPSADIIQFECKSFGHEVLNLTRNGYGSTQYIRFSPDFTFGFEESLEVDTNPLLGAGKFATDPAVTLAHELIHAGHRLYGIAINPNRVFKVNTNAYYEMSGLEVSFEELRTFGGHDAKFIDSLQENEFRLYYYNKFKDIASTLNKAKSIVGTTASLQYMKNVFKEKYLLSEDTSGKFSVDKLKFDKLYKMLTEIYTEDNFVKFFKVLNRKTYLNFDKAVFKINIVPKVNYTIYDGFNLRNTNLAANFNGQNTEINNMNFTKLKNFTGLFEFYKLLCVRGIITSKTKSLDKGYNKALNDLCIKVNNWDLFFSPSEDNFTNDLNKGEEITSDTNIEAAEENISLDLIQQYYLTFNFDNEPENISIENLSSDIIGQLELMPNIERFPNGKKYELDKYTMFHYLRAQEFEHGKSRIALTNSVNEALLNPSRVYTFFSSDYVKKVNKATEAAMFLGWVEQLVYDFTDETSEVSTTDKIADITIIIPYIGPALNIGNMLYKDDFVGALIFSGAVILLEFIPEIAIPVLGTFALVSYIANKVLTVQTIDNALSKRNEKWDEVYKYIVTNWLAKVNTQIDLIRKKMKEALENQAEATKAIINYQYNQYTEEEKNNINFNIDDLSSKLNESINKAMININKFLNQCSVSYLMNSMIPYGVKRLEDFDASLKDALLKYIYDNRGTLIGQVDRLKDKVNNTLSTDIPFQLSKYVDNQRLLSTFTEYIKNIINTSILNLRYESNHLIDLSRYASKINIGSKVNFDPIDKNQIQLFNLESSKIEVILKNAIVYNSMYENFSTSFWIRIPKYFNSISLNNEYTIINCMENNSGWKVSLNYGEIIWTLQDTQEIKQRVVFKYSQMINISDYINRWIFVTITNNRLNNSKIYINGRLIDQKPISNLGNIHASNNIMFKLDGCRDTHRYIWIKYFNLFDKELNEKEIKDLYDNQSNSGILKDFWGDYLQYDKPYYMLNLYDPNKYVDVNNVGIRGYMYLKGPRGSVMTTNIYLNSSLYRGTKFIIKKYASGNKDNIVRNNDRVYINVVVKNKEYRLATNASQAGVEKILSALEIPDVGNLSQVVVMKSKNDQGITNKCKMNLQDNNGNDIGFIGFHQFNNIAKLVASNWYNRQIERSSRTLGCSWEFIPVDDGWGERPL

For the molecule `C[C@@H]1O[C@@H](OC[C@H]2O[C@@H](Oc3c(-c4ccc(O)c(O)c4)oc4cc(O)cc(O)c4c3=O)[C@H](O)[C@@H](O)[C@@H]2O)[C@H](O)[C@H](O)[C@H]1O` [first component, rutin], the “neurotoxin-neutralizing activity (neuromuscular contractility, FIG. 2)” value is on record as “high toxin-neutralizing activities”. Next, `C[C@@H]1O[C@@H](OC[C@H]2O[C@@H](Oc3c(-c4ccc(O)cc4)oc4cc(O)cc(O)c4c3=O)[C@H](O)[C@@H](O)[C@@H]2O)[C@H](O)[C@H](O)[C@H]1O` [fourth component, nicotiflorin]: “high toxin-neutralizing activities”.

Consider “kaempferol-3-O-glc-(6-1)-rha-(3-1)-glc [third component]”, for which the “neurotoxin-neutralizing activity (neuromuscular contractility, FIG. 2)” value is on record as “high toxin-neutralizing activities”. As for “kaempferol-3-(O-glc-rha)-4′-O-rha [second component]”, the entry is “high toxin-neutralizing activities”.
